Experiments:
p-c-Jun in the DRGs = experiment: p-c-Jun in DRG after one treatment cycle; assay type: in vivo, mice; conditions: one cycle of cisplatin 2.3 mg/kg i.p. for 5 days
[1] = tested on: intraepidermal nerve fibers; experiment: IENF density in hind paw skin; assay type: in vivo, mice; conditions: two cycles of cisplatin 2.3 mg/kg i.p.
DRG transcriptome = experiment: RNA sequencing of DRG; assay type: in vivo, mice; conditions: cisplatin alone vs controls, one cycle
C57Bl/6 mice [2] = experiment: Y maze spontaneous alternation test; assay type: in vivo; conditions: two cycles of cisplatin
C57Bl/6 mice [3] = experiment: Puzzle box test; assay type: in vivo; conditions: two cycles of cisplatin; cardboard plug, trials 8–11
[4] = tested on: NCI-H69 human lung cancer xenograft; experiment: NCI-H69 lung cancer xenograft, tumor volume; assay type: in vivo, BALB/c nude mice; conditions: cisplatin 4 mg/kg i.p. every 4 days, 6 doses
synaptosomes = conditions: two cycles of cisplatin

N.N.[Cl][Pt][Cl] [cisplatin]
p-c-Jun in DRG (p-c-Jun in the DRGs): significantly, but modestly, induced p-c-Jun | IENF density in the hind paws [1]: reduced IENF density | number of genes with changed expression (DRG transcriptome): 1337 | Y maze alternation rate (C57Bl/6 mice [2]): significant decrease in the alternation rate | time to enter the goal box with difficult obstacle (C57Bl/6 mice [3]): required significantly more time to enter the goal box | tumor growth [4]: significantly reduced tumor growth | synaptosomal MRC and SRC (synaptosomes): reduced maximal respiratory capacity and spare respiratory capacity

— PMC8442742 (Pain, 2021)
